Experimental data reported in ChEMBL document CHEMBL5042541 (J Med Chem, 2022).

Key:
[1] = Lipophilicity, logD of compound at pH 7.5; format: physicochemical; conditions: buffer
Keap1/Nrf2 = Keap1/Nrf2 (Homo sapiens, UniProt Q14145)
Sequence of Keap1/Nrf2 (Q16236 whole entry): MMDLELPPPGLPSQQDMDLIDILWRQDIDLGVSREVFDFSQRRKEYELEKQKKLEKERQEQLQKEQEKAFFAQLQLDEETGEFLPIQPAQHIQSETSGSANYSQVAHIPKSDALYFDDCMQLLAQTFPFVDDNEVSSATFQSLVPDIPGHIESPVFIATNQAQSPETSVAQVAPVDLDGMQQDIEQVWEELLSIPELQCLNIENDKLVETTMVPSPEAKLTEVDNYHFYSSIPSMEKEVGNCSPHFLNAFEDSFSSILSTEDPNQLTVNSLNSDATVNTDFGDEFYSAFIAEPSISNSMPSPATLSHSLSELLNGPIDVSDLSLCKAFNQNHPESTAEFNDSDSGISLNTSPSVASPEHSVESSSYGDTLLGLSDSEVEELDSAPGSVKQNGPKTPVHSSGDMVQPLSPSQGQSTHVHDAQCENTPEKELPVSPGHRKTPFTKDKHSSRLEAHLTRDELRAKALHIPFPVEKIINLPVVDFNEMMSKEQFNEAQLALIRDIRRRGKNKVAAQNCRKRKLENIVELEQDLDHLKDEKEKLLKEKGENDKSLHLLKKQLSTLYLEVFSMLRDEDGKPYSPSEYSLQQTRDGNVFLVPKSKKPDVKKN
Sequence of Keap1/Nrf2 (Q14145 whole entry): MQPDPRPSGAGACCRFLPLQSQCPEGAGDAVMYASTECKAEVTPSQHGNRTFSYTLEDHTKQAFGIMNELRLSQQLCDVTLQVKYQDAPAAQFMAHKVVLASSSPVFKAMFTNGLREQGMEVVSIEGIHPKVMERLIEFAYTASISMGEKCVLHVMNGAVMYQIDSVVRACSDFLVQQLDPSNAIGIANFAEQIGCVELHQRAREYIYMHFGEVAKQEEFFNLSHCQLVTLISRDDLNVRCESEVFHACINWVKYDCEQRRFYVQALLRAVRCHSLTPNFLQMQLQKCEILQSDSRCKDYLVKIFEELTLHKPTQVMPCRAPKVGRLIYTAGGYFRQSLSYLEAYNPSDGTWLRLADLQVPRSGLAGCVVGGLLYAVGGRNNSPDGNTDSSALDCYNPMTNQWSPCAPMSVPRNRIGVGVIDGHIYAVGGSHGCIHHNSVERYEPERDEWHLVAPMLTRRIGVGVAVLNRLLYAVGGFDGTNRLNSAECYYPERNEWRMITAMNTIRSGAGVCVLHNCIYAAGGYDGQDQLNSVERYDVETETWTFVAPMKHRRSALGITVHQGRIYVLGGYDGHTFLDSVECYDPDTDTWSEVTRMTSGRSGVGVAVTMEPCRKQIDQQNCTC

CC(=O)N1CCC[C@H]1C(=O)N[C@@H]1COC(=O)c2ccccc2CSC[C@H](C(=O)N(C)C)NC1=O
logD [1]: 0.43

CC(=O)N1CCC[C@H]1C(=O)N[C@@H]1CNC(=O)c2ccccc2COC[C@H](C(=O)N(C)C)NC1=O
Kd (Keap1/Nrf2): > 500 µM
